From PubChem BioAssay (NCI)
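Results reflect a 48-hour exposure of cells in 96-well plates to compound at five concentrations. The concentration for 50% growth inhibition is given as GI50. TGI: total growth inhibition.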

Columns and labels:
Test in all cases: NCI anticancer screen, dose series, 48 h
SF-539 CNS = tested on: SF-539 CNS
HOP-92 NSCLC = tested on: HOP-92 NSCLC
EKVX NSCLC = tested on: EKVX NSCLC
COLO 205 colon = tested on: COLO 205 colon
IGROV1 ovarian = tested on: IGROV1 ovarian
MOLT-4 leukemia = tested on: MOLT-4 leukemia
MCF7 breast = tested on: MCF7 breast
OVCAR-3 ovarian = tested on: OVCAR-3 ovarian
SW-620 colon = tested on: SW-620 colon
MDA-N = tested on: MDA-N
PC-3 prostate = tested on: PC-3 prostate
MALME-3M melanoma = tested on: MALME-3M melanoma
SN12C renal = tested on: SN12C renal
RPMI-8226 leukemia = tested on: RPMI-8226 leukemia
NCI/ADR-RES ovarian = tested on: NCI/ADR-RES ovarian
MDA-MB-231 breast = tested on: MDA-MB-231 breast
U251 CNS = tested on: U251 CNS
OVCAR-4 ovarian = tested on: OVCAR-4 ovarian
SK-MEL-2 melanoma = tested on: SK-MEL-2 melanoma
UACC-257 melanoma = tested on: UACC-257 melanoma
T-47D breast = tested on: T-47D breast
M14 melanoma = tested on: M14 melanoma
A549 NSCLC = tested on: A549 NSCLC
UACC-62 melanoma = tested on: UACC-62 melanoma
UO-31 renal = tested on: UO-31 renal
HS 578T breast = tested on: HS 578T breast
NCI-H460 lung = tested on: NCI-H460 lung
OVCAR-5 ovarian = tested on: OVCAR-5 ovarian
SK-MEL-5 melanoma = tested on: SK-MEL-5 melanoma
NCI-H23 lung = tested on: NCI-H23 lung
HCT-15 colon = tested on: HCT-15 colon
HOP-62 NSCLC = tested on: HOP-62 NSCLC
HT29 colon = tested on: HT29 colon
NCI-H226 lung = tested on: NCI-H226 lung
LOX IMVI melanoma = tested on: LOX IMVI melanoma
SF-268 CNS = tested on: SF-268 CNS
CAKI-1 renal = tested on: CAKI-1 renal
SK-MEL-28 melanoma = tested on: SK-MEL-28 melanoma
NCI-H522 lung = tested on: NCI-H522 lung
SK-OV-3 ovarian = tested on: SK-OV-3 ovarian
SNB-19 CNS = tested on: SNB-19 CNS
ACHN renal = tested on: ACHN renal
OVCAR-8 ovarian = tested on: OVCAR-8 ovarian
BT-549 breast = tested on: BT-549 breast
HCT-116 colon = tested on: HCT-116 colon
KM12 colon = tested on: KM12 colon
SF-295 CNS = tested on: SF-295 CNS
HL-60(TB) leukemia = tested on: HL-60(TB) leukemia
A498 renal = tested on: A498 renal
MDA-MB-435 = tested on: MDA-MB-435
K-562 leukemia = tested on: K-562 leukemia
DU-145 prostate = tested on: DU-145 prostate
RXF 393 renal = tested on: RXF 393 renal
TK-10 renal = tested on: TK-10 renal
SNB-75 CNS = tested on: SNB-75 CNS
786-0 renal = tested on: 786-0 renal
HCC-2998 colon = tested on: HCC-2998 colon
SR leukemia = tested on: SR leukemia
CCRF-CEM leukemia = tested on: CCRF-CEM leukemia

O=C1CC2OCC=C3CN4CCC56c7ccccc7N1C5C2C3CC46 (stereo not drawn) (tested in a mixture with another compound)
GI50 (SF-539 CNS): > 50 µg/mL | TGI (SF-539 CNS): > 50 µg/mL | GI50 (HOP-92 NSCLC): > 50 µg/mL | TGI (HOP-92 NSCLC): > 50 µg/mL | GI50 (EKVX NSCLC): > 50 µg/mL | TGI (EKVX NSCLC): > 50 µg/mL | GI50 (COLO 205 colon): > 50 µg/mL | TGI (COLO 205 colon): > 50 µg/mL | GI50 (IGROV1 ovarian): > 50 µg/mL | TGI (IGROV1 ovarian): > 50 µg/mL | GI50 (MOLT-4 leukemia): 11.5 µg/mL | TGI (MOLT-4 leukemia): 24.9 µg/mL | GI50 (MCF7 breast): > 50 µg/mL | TGI (MCF7 breast): > 50 µg/mL | GI50 (OVCAR-3 ovarian): > 50 µg/mL | TGI (OVCAR-3 ovarian): > 50 µg/mL | GI50 (SW-620 colon): > 50 µg/mL | TGI (SW-620 colon): > 50 µg/mL | GI50 (MDA-N): > 50 µg/mL | TGI (MDA-N): > 50 µg/mL | GI50 (PC-3 prostate): > 50 µg/mL | TGI (PC-3 prostate): > 50 µg/mL | GI50 (MALME-3M melanoma): > 50 µg/mL | TGI (MALME-3M melanoma): > 50 µg/mL | GI50 (SN12C renal): > 50 µg/mL | TGI (SN12C renal): > 50 µg/mL | GI50 (RPMI-8226 leukemia): > 50 µg/mL | TGI (RPMI-8226 leukemia): > 50 µg/mL | GI50 (NCI/ADR-RES ovarian): > 50 µg/mL | TGI (NCI/ADR-RES ovarian): > 50 µg/mL | GI50 (MDA-MB-231 breast): > 50 µg/mL | TGI (MDA-MB-231 breast): > 50 µg/mL | GI50 (U251 CNS): > 50 µg/mL | TGI (U251 CNS): > 50 µg/mL | GI50 (OVCAR-4 ovarian): > 50 µg/mL | TGI (OVCAR-4 ovarian): > 50 µg/mL | GI50 (SK-MEL-2 melanoma): > 50 µg/mL | TGI (SK-MEL-2 melanoma): > 50 µg/mL | GI50 (UACC-257 melanoma): > 50 µg/mL | TGI (UACC-257 melanoma): > 50 µg/mL | GI50 (T-47D breast): > 50 µg/mL | TGI (T-47D breast): > 50 µg/mL | GI50 (M14 melanoma): > 50 µg/mL | TGI (M14 melanoma): > 50 µg/mL | GI50 (A549 NSCLC): > 50 µg/mL | TGI (A549 NSCLC): > 50 µg/mL | GI50 (UACC-62 melanoma): > 50 µg/mL | TGI (UACC-62 melanoma): > 50 µg/mL | GI50 (UO-31 renal): > 50 µg/mL | TGI (UO-31 renal): > 50 µg/mL | GI50 (HS 578T breast): > 50 µg/mL | TGI (HS 578T breast): > 50 µg/mL | GI50 (NCI-H460 lung): > 50 µg/mL | TGI (NCI-H460 lung): > 50 µg/mL | GI50 (OVCAR-5 ovarian): > 50 µg/mL | TGI (OVCAR-5 ovarian): > 50 µg/mL | GI50 (SK-MEL-5 melanoma): > 50 µg/mL | TGI (SK-MEL-5 melanoma): > 50 µg/mL | GI50 (NCI-H23 lung): > 50 µg/mL | TGI (NCI-H23 lung): > 50 µg/mL | GI50 (HCT-15 colon): > 50 µg/mL | TGI (HCT-15 colon): > 50 µg/mL | GI50 (HOP-62 NSCLC): > 50 µg/mL | TGI (HOP-62 NSCLC): > 50 µg/mL | GI50 (HT29 colon): > 50 µg/mL | TGI (HT29 colon): > 50 µg/mL | GI50 (NCI-H226 lung): > 50 µg/mL | TGI (NCI-H226 lung): > 50 µg/mL | GI50 (LOX IMVI melanoma): > 50 µg/mL | TGI (LOX IMVI melanoma): > 50 µg/mL | GI50 (SF-268 CNS): > 50 µg/mL | TGI (SF-268 CNS): > 50 µg/mL | GI50 (CAKI-1 renal): > 50 µg/mL | TGI (CAKI-1 renal): > 50 µg/mL | GI50 (SK-MEL-28 melanoma): > 50 µg/mL | TGI (SK-MEL-28 melanoma): > 50 µg/mL | GI50 (NCI-H522 lung): > 50 µg/mL | TGI (NCI-H522 lung): > 50 µg/mL | GI50 (SK-OV-3 ovarian): > 50 µg/mL | TGI (SK-OV-3 ovarian): > 50 µg/mL | GI50 (SNB-19 CNS): > 50 µg/mL | TGI (SNB-19 CNS): > 50 µg/mL | GI50 (ACHN renal): > 50 µg/mL | TGI (ACHN renal): > 50 µg/mL | GI50 (OVCAR-8 ovarian): > 50 µg/mL | TGI (OVCAR-8 ovarian): > 50 µg/mL | GI50 (BT-549 breast): > 50 µg/mL | TGI (BT-549 breast): > 50 µg/mL | GI50 (HCT-116 colon): > 50 µg/mL | TGI (HCT-116 colon): > 50 µg/mL | GI50 (KM12 colon): > 50 µg/mL | TGI (KM12 colon): > 50 µg/mL | GI50 (SF-295 CNS): > 50 µg/mL | TGI (SF-295 CNS): > 50 µg/mL | GI50 (HL-60(TB) leukemia): 0.103 µg/mL | TGI (HL-60(TB) leukemia): 0.216 µg/mL | GI50 (A498 renal): > 50 µg/mL | TGI (A498 renal): > 50 µg/mL | GI50 (MDA-MB-435): > 50 µg/mL | TGI (MDA-MB-435): > 50 µg/mL | GI50 (K-562 leukemia): 3.44 µg/mL | TGI (K-562 leukemia): > 50 µg/mL | GI50 (DU-145 prostate): > 50 µg/mL | TGI (DU-145 prostate): > 50 µg/mL | GI50 (RXF 393 renal): > 50 µg/mL | TGI (RXF 393 renal): > 50 µg/mL | GI50 (TK-10 renal): > 50 µg/mL | TGI (TK-10 renal): > 50 µg/mL | GI50 (SNB-75 CNS): > 50 µg/mL | TGI (SNB-75 CNS): > 50 µg/mL | GI50 (786-0 renal): > 50 µg/mL | TGI (786-0 renal): > 50 µg/mL

Cc1ccc2c(c1)C/C(=C\c1ccccc1C(=O)O)C2=O
TGI (SF-539 CNS): > 100 µM | TGI (HOP-92 NSCLC): > 100 µM | TGI (EKVX NSCLC): > 100 µM | TGI (HCC-2998 colon): > 100 µM | TGI (COLO 205 colon): > 100 µM | TGI (IGROV1 ovarian): > 100 µM | TGI (MOLT-4 leukemia): > 100 µM | TGI (MCF7 breast): > 100 µM | TGI (OVCAR-3 ovarian): > 100 µM | TGI (SW-620 colon): > 100 µM | TGI (MDA-N): > 100 µM | TGI (PC-3 prostate): > 100 µM | TGI (MALME-3M melanoma): > 100 µM | TGI (SN12C renal): > 100 µM | TGI (RPMI-8226 leukemia): > 100 µM | TGI (NCI/ADR-RES ovarian): > 100 µM | TGI (U251 CNS): > 100 µM | TGI (OVCAR-4 ovarian): > 100 µM | TGI (SK-MEL-2 melanoma): > 100 µM | TGI (UACC-257 melanoma): > 100 µM | TGI (T-47D breast): > 100 µM | TGI (A549 NSCLC): > 100 µM | TGI (UACC-62 melanoma): > 100 µM | TGI (UO-31 renal): > 100 µM | TGI (HS 578T breast): > 100 µM | TGI (NCI-H460 lung): > 100 µM | TGI (SR leukemia): 91.3 µM | TGI (OVCAR-5 ovarian): > 100 µM | TGI (SK-MEL-5 melanoma): > 100 µM | TGI (NCI-H23 lung): > 100 µM | TGI (HCT-15 colon): > 100 µM | TGI (HOP-62 NSCLC): > 100 µM | TGI (HT29 colon): > 100 µM | TGI (NCI-H226 lung): > 100 µM | TGI (LOX IMVI melanoma): > 100 µM | TGI (SF-268 CNS): > 100 µM | TGI (CAKI-1 renal): > 100 µM | TGI (SK-MEL-28 melanoma): > 100 µM | TGI (NCI-H522 lung): > 100 µM | TGI (CCRF-CEM leukemia): > 100 µM | TGI (SNB-19 CNS): > 100 µM | TGI (ACHN renal): > 100 µM | TGI (OVCAR-8 ovarian): > 100 µM | TGI (BT-549 breast): > 100 µM | TGI (HCT-116 colon): > 100 µM | TGI (KM12 colon): > 100 µM | TGI (SF-295 CNS): > 100 µM | TGI (HL-60(TB) leukemia): > 100 µM | TGI (A498 renal): > 100 µM | TGI (MDA-MB-435): > 100 µM | TGI (K-562 leukemia): > 100 µM | TGI (DU-145 prostate): > 100 µM | TGI (RXF 393 renal): > 100 µM | TGI (TK-10 renal): > 100 µM | TGI (SNB-75 CNS): > 100 µM | TGI (786-0 renal): > 100 µM
